Several values for one entry are separate records, joined by “and”; a condition that tells them apart may be missing. Identical values can stand only once. Like-named read-outs stand apart in the source and are kept apart here.
Tested on: MA15-CoV
Design: species or system mice
Settings: mouse, in vivo; for decline in day 4 lung viral titers: sc

`COc1cccc2[nH]c(C(=O)N[C@@H](CC(C)C)C(=O)N[C@@H](C[C@@H]3CCNC3=O)C(=O)CO)cc12` [parent compound, N-((1S)-1-{[((1S)-3-hydroxy-2-oxo-1-{[(3S)-2-oxopyrrolidin-3-yl]methyl}propyl)amino]carbonyl}-3-methylbutyl)-4-methoxy-1H-indole-2-carboxamide] was tested, and the “reduction of lung viral titers on day 4 post-infection” value was “≈ 2.0 log 10 and ≈ 1.5 log 10 and ~1.0 log 10”, the “weight loss and histopathologic signs of disease” value was “decreased” and the “weight loss caused by the virus” value was “reduced”. The “decline in day 4 lung viral titers” value (30 mg/kg) was “≈ 1.5 log 10”, the “decline in day 4 lung viral titers” value (100 mg/kg) was “≈ 3 log 10” and the “decline in day 4 lung viral titers” value (300 mg/kg) was no less than 3.5 log 10.

Source: patent US11926642B2, “Compounds and methods for the treatment of COVID-19” (priority 2020, dated 2024)
